Consider 3 molecules from patent publication US20050163831A1, “Patch for transdermal administration” (Hisamitsu Pharmaceutical Co., Inc., priority 2002, published 2005).

The nature of data set [1]: permeability test through hairless mouse skin (flow-through cell). The format is in vitro ADME. Conditions: for maximum value of the permeability rate of the drug per unit area of the skin, base agent Acetone: 1% (w/v) solution in acetone as donor; for maximum value of the permeability rate of the drug per unit area of the skin, base agent Acetone / maximum value of the permeability rate of the drug per unit area of the skin, base agent IPM / maximum value of the permeability rate of the drug per unit area of the skin, base agent Liquid paraffin / maximum value of the permeability rate of the drug per unit area of the skin, base agent PG: extirpated hairless mouse dorsal skin, 37° C., up to 24 hours; for maximum value of the permeability rate of the drug per unit area of the skin, base agent IPM: saturated solution in isopropyl myristate (IPM) as donor; for maximum value of the permeability rate of the drug per unit area of the skin, base agent Liquid paraffin: saturated solution in liquid paraffin as donor; for maximum value of the permeability rate of the drug per unit area of the skin, base agent PG: saturated solution in propylene glycol (PG) as donor. Here is the method: Preliminary Test 1 (permeability test through hairless mouse skin)
A permeability test through hairless mouse skin was conducted for the following 1-12 test solutions:
First, dorsal skin of a hairless mouse was extirpated, which was set to a flow-through cell (effective area: 1 cm^2) with facing the dermis side to the receptor side, where a water of 37° C. was circulating the periphery of the cell. Next, 1 mL of Test solution 1 was charged in a cell on the stratum corneum side of the skin as a donor solution. While using a mixed solution of 40% (v/v) polyethylene glycol 400/physiological saline as a receptor layer, sampling of the receptor solution was carried out at a speed of 5 mL/hour every 2 hours up to 24 hours. For receptor solutions obtained at respective times, the flow volume was measured precisely and the drug concentration was measured by using high-performance liquid chromatography. From the obtained measurement values of the flow volume and drug concentration, the permeability rate per 1 hour was calculated to obtain the maximum value of the permeability rate of the drug per unit area of the skin.

Data set [2] concerns yeast-induced paw inflammation and nociception. The data set is described as follows: yeast-induced paw inflammation and nociception test in rats. The class given is in vivo. Conditions: 100 μL of 3% (w/v) solution in acetone applied to footpad for 3 hours; measured 3 hours after yeast injection; p<0.01 vs control. The text has this:
Preliminary Test 2 (yeast-induced paw inflammation and nociception test in rats) First, SD male rats with weight of around 130 g were used to measure a pain threshold value (g) by using analgesimeter (Analgesy 7200, Ugo Basile) according to the method of Randall & […]. and […] method for measurement of analgesic activity on inflamed tissue. (1957) Arch. Int. Pharmacodyn. 4, 409-419], while defining removal reaction against pressure irritation to a right hind footpad as the index, and they were grouped such that there was no difference between the average pain threshold values of both groups. […] On the other hand, acetone was applied to the control group. After sufficient drying after the application, the rats were housed in separate cages without covering treatment. At this time, for the purpose of preventing oral drug intake, a collar was attached to all the rats including the control group. After 3 hours from the application described above, valdecoxib remaining at the applied site was wiped off with absorbent cotton having been dipped in slightly warm water and, immediately after the wipe, each 100 μL of a yeast suspension (20% Baker's Yeast) was injected subcutaneously to all the rats including the control group to induce inflammation. […] The obtained results are illustrated in FIG. 1.

Data set [3] relates to carrageenin-induced paw edema. The data set is described as follows: carrageenin-induced paw edema test in rats. The conditions noted are these: 100 μL of 3% (w/v) solution in acetone applied to footpad for 3 hours; measured 3 hours after carrageenin; p<0.01 vs control. The format is in vivo. The text has this:
Preliminary Test 3 (carrageenin-induced paw edema test in rats)
First, SD male rats with weight of around 110 g were used to measure a paw volume (mL) of a right hind footpad by using a water-replacement type paw volume determining device (Model TK-101 CMP, MUROMACHI KIKAI) according to the method of Fujihira et al. [Fujihira Eichi, Screening no Hoho to Mondaiten—Adjuvant Kansetsuen ni yoru Koenshoyaku no Kenteiho (Methods and Problems of Screening—Assay of Antiinflammatory Agent by Adjuvant Arthritis) (1971) Oyo Yakuri (Pharmacometrics) 5,169-183], and they were grouped such that there was no difference between the average paw volume values of both groups. Next, each 100 μL of a 3% (w/v) solution of valdecoxib in acetone was applied to the right hind footpad. On the other hand, acetone was applied to the control group. After sufficient drying after the application, the rats were housed in separate cages without covering treatment. […] After additional 3 hours, the paw volume at the right hind footpad was measured again to calculate an edema ratio (%) according to the following edema ratio calculation method (calculation formula): Edema ratio (%)=[(paw volume after 3 hours from inflammation (mL)−paw volume at ordinary time (mL))/paw volume at ordinary time (mL))]×100 to evaluate the antiinflammatory effect of valdecoxib. […]
Background: In the carrageenan paw model, swelling and tenderness develop within hours.

With `Cc1ccc(-c2cc(C(F)(F)F)nn2-c2ccc(S(N)(=O)=O)cc2)cc1` [celecoxib, 4-[5-(4-methylphenyl)-3-(trifluoromethyl)pyrazole-1-yl]benzolsulfonamide], in data set [1], the “maximum value of the permeability rate of the drug per unit area of the skin, base agent Acetone” value is on record as 0.3 μg/cm^2/hr; the “maximum value of the permeability rate of the drug per unit area of the skin, base agent IPM” value was 2.04 μg/cm^2/hr; the “maximum value of the permeability rate of the drug per unit area of the skin, base agent Liquid paraffin” value turned out to be 0.00 μg/cm^2/hr; the “maximum value of the permeability rate of the drug per unit area of the skin, base agent PG” value came out at 0.90 μg/cm^2/hr.
As to `CS(=O)(=O)c1ccc(C2=C(c3ccccc3)C(=O)OC2)cc1` [rofecoxib, 3-phenyl-4-(4-methylsulfonylphenyl)-2(5H)-furanone], in data set [1], the “maximum value of the permeability rate of the drug per unit area of the skin, base agent Acetone” value is on record as 0.09 μg/cm^2/hr; the “maximum value of the permeability rate of the drug per unit area of the skin, base agent IPM” value was 0.00 μg/cm^2/hr; the “maximum value of the permeability rate of the drug per unit area of the skin, base agent Liquid paraffin” value was 0.00 μg/cm^2/hr; the “maximum value of the permeability rate of the drug per unit area of the skin, base agent PG” value was 0.00 μg/cm^2/hr.
On to `Cc1onc(-c2ccccc2)c1-c1ccc(S(N)(=O)=O)cc1` [valdecoxib, 4-(5-methyl-3-phenylisoxazole-4-yl)benzenesulfonamide], for which the “analgesic action (pain threshold value at right hind footpad, FIG. 1)” value in data set [2] is “significant analgesic action”. For the same molecule, the “antiinflammatory action (edema ratio, FIG. 2)” value in data set [3] was “significant antiinflammatory action”. For the same molecule, in data set [1], the “maximum value of the permeability rate of the drug per unit area of the skin, base agent Acetone” value is reported as 0.59 μg/cm^2/hr; the “maximum value of the permeability rate of the drug per unit area of the skin, base agent IPM” value amounted to 2.97 μg/cm^2/hr; the “maximum value of the permeability rate of the drug per unit area of the skin, base agent Liquid paraffin” value is on record as 0.41 μg/cm^2/hr; the “maximum value of the permeability rate of the drug per unit area of the skin, base agent PG” value turned out to be 4.10 μg/cm^2/hr. In addition, the “skin permeability (in words)” value in data set [1] (compared with celecoxib and rofecoxib, Table 1) is “very high skin permeability”.
